Assay results taken from patent US12637411B2, “Structurally modified opioids for prevention and treatment of diseases and conditions” (University of Padova, priority 2019, dated 2026).

Assays:
[1] = compared to dextromethadone and deuterated dextromethadone (D9, D10, D16), PCT/US2018/016159; cited from earlier work
NMDAR = settings: cited from earlier work; for trapping: Zanos et al. 2018
[2] = Novelty Suppressed Feeding Test (NSFT); settings: 72 hr after administration, vs. vehicle
[3] = Female Urine Sniffing Test (FUST); settings: 24 hr after administration, vs. vehicle
[4] = Chronic Unpredictable Stress (CUS) protocol with SPT, FUST, NSFT; settings: single dose
Excerpt: The present inventors also performed behavioral analysis of the effect of both d-methadone and ketamine on rats exposed to a Chronic Unpredictable Stress (CUS) protocol.

Forced Swim Test (FST) = format: in vivo; settings: drug treated vs. vehicle treated animals; d-methadone 10, 20, 40 mg/kg
ARPE-19 cells [5] = experiment: ROS production in ARPE-19 cells; settings: 1 mM L-Glu + 30 μM antagonist; statistical significance not reached
Procedure: This study was conducted also on the retinal cell line ARPE-19 in order to verify how NMDAR activation and blockade influence ROS production.

ARPE-19 cells [6] = experiment: Relative gene expression (NMDAR1, p65, TNF-α, IL-6) in ARPE-19 cells; format: cell-based; settings: pretreatment before 1 mM L-glutamate
Procedure: Once the effect of NMDAR antagonists on nuclear translocation of p65 was verified, in order to confirm their anti-inflammatory effect, the present inventors investigated the changes of gene expression levels of the pro-inflammatory cytokines IL-6 (interleukin-6) and TNF-α, the transcription factor p65 and the NMDA receptor.
The first gene for which the level of gene expression was assessed is the 1A subunit of NMDAR receptor dimer (known as NMDAR1).

ARPE-19 cells [7] = experiment: ARPE-19 cell viability after L-glutamate; settings: pretreatment before 1 mM L-glutamate; dextromethadone 30 microMolar
[8] = Phase 1 Multiple Ascending Dose (MAD) study; format: in vivo, healthy opioid-naïve volunteers
Procedure: The objective of the Multiple Ascending Dose (MAD) study was to establish PK, PD, and safety of once daily, 10-day administration. Administration involved cohorts of 25, 50, 75 mg and N=24.

[9] = tested on: brain derived neurotrophic factor (BDNF); settings: 25 mg, 4 hours after administration, vs pre-treatment
[10] = Phase 1 Single Ascending Dose (SAD) study
Procedure: The Single Ascending Dose (SAD) study included a parallel group, double-blind, placebo-controlled design. The objectives of the study were to establish PK, PD, and safety of single dose administration. Administration involved cohorts of 5, 20, 60, 100, 150, 200 mg and N=42.

GluR1 and PSD95 = experiment: mTORC1 signaling proteins and synaptic proteins in PFC and hippocampus; settings: rat models of depression
Excerpt: Levels of phospho proteins were normalized to total proteins and levels of synaptic proteins were normalized the GAPDH. Results are the mean±S.E.M., n=10-12/group.

COc1ccc2c(c1)[C@]13CCCC[C@@H]1[C@H](C2)N(C)CC3 [Dextromethorphan, dextromethorphan]
half-life [1]: significantly shorter half-life

CNC1(c2ccccc2Cl)CCCCC1=O (stereo not shown) [Ketamine, ketamine]
trapping (NMDAR): 86%
effect in the Novelty Suppressed Feeding Test [2]: significant improvements
effect in the Female Urine Sniffing Test [3]: significant improvements
behavioral effects of CUS (SPT, FUST, NSFT) [4]: prevented the behavioral effects of CUS
effect in the Forced Swim Test (immobility, climbing, swimming counts) (Forced Swim Test (FST)): significant improvements

C[C@]12N[C@H](Cc3ccccc31)c1ccccc12 [MK-801]
trapping (NMDAR): 100%
ROS production (ARPE-19 cells [5]): tendency to decrease
IL-6 gene expression (ARPE-19 cells [6]): tendency to decrease
NMDAR1 gene expression (ARPE-19 cells [6]): only slightly evident
TNF-α gene expression (ARPE-19 cells [6]): restored to normal levels
effect on L-glutamate-induced cell viability decrease (ARPE-19 cells [7]): protective effect on cell viability

CC12CC3CC(C)(C1)CC(N)(C3)C2 [Memantine, memantine]
off rate (NMDAR; NMDA receptor block): ~5 s
on rate (NMDAR; NMDA receptor block): 1 s

c1ccc(C2(N3CCCCC3)CCCCC2)cc1 [PCP]
trapping (NMDAR): 98%

CCC(=O)C(C[C@H](C)N(C)C)(c1ccccc1)c1ccccc1 [dextromethadone]
effect in the Novelty Suppressed Feeding Test [2]: significant improvements
dissociative or psychotomimetic adverse events ([8]; at the tested doses (SAD and MAD)): did not cause dissociative or psychotomimetic adverse events
tolerability ([8]; daily doses up to 75 mg for 10 days (single doses up to 150 mg)): well tolerated
PK: Cmax, AUCtau Day 1; Cmax, AUCtau, Css Day 10 ([8]; once daily 25, 50, 75 mg, 10 days): linear PK with dose proportionality
ROS production (ARPE-19 cells [5]): tendency to decrease
subjects with an increase in BDNF levels post treatment [9]: 6 of 6
effect in the Female Urine Sniffing Test [3]: significant improvements
Maximum tolerated dose (MTD) ([10]; single dose): 150 mg
opioid effects ([10]; up to 150 mg): no clinically significant opioid effects
behavioral effects of CUS (SPT, FUST, NSFT) [4]: prevented the behavioral effects of CUS
IL-6 gene expression (ARPE-19 cells [6]): tendency to decrease
NMDAR1 gene expression (ARPE-19 cells [6]): up to 9 times when compared to the expression level of vehicle-treated cells
TNF-α gene expression (ARPE-19 cells [6]): restored to normal levels
p65 gene expression (ARPE-19 cells [6]): decrease in gene expression of p65
levels of GluR1 and PSD95 (GluR1 and PSD95): increase
effect on L-glutamate-induced cell viability decrease (ARPE-19 cells [7]): protective effect on cell viability
